Experimental findings from DBAASP are described below.

By MIC is commonly meant the smallest concentration in the dilution series that meets the test's criterion for growth inhibition. Read a high MIC as weaker potency.

Molecules are shown by their SMILES. In brackets after ≈: the same amount, converted by molar mass. A value given as a limit tells only on which side of the number the result lay.

Common to all, as to experiment: ≥ marks a high value that may be exact or a test limit, other limits are often not marked, values filed in µg/mL are converted to µM
Test [1] concerns Staphylococcus aureus USA 100.
The test system of test [2] is Streptococcus mutans UA159.
The subject of test [3] is Escherichia coli BW25113.
Test [4] relates to Staphylococcus aureus ATCC BAA-1556.
The test system of test [5] is Staphylococcus aureus ATCC 12600.
Test [6] relates to Candida albicans ATCC 10231.
Test [7] relates to Botrytis cinerea.
Test [8] concerns Escherichia coli ATCC 11775.
Test [9] relates to Staphylococcus aureus ATCC 25923.
Test [10] relates to Pseudomonas aeruginosa ATCC 9027.
Test [11] has as its system Bacillus cereus ATCC 11778.
The test system of test [12] is Escherichia coli ATCC 35218.
The test system of test [13] is Salmonella enterica subsp. enterica serovar Typhimurium ATCC 14028.
The subject of test [14] is Staphylococcus aureus ATCC 6538P.
In test [15] the test system is Klebsiella pneumoniae ATCC 10031.
In test [16] the test system is Pseudomonas aeruginosa ATCC 27853.
Test [17] has as its system Bacillus subtilis ATCC 6633.
For test [18], the system named is Escherichia coli ATCC 25922.
Test [19] relates to Micrococcus luteus ATCC 10240.
Test [20] relates to Shigella dysenteriae ATCC 9752.
Test [21] relates to Escherichia coli K12 MG1655.
The test system of test [22] is Staphylococcus aureus USA 300.
For test [23], the system named is Candida albicans ATCC 90028.
Test [24] deals with Staphylococcus aureus NCTC 10788.
In test [25] the test system is Enterococcus faecalis NCTC 12697.
For test [26], the system named is Staphylococcus aureus NCTC 12493.
The subject of test [27] is Escherichia coli NCTC 10418.
Test [28] has as its system Candida albicans NCYC 1467.

Turning to `C[C@H](N)C(=O)N[C@@H](CCCN=C(N)N)C(=O)N[C@@H](C)C(=O)N[C@@H](CCCN=C(N)N)C(N)=O` [ARAR], the MIC in [1] was no less than 100 µM.

`CC[C@H](C)[C@H](NC(=O)[C@H](CCCN=C(N)N)NC(=O)[C@H](C)NC(=O)[C@H](Cc1ccccc1)NC(=O)[C@H](Cc1ccccc1)NC(=O)[C@H](CCCCN)NC(=O)[C@H](CCCN=C(N)N)NC(=O)[C@H](CC(C)C)NC(=O)[C@@H](NC(=O)[C@H](CCCCN)NC(=O)[C@@H]1CCCN1C(=O)[C@H](CC(C)C)NC(=O)[C@@H](N)Cc1ccccc1)[C@@H](C)O)C(=O)N[C@@H](CCCN=C(N)N)C(=O)NCC(=O)NCC(=O)N[C@@H](CCCN=C(N)N)C(=O)N[C@@H](C)C(=O)N[C@@H](C)C(=O)N[C@H](C(=O)N[C@@H](CC(C)C)C(=O)N[C@@H](CC(N)=O)C(=O)N[C@@H](C)C(=O)O)C(C)C` [FLPKTLRKFFARIRGGRAAVLNA] showed a minimal inhibitory concentration (MIC) in [2] of 8.48 µM (≈ 22.1 µg/mL). This lies in the single-digit micromolar range.

`CC[C@H](C)[C@H](NC(=O)[C@@H]1CCCN1C(=O)[C@H](CCCN=C(N)N)NC(=O)[C@H](CCCN=C(N)N)NC(=O)[C@H](Cc1c[nH]c2ccccc12)NC(=O)[C@@H](N)CCCN=C(N)N)C(=O)N[C@@H](CCCN=C(N)N)C(=O)N[C@@H](CCCN=C(N)N)C(=O)N[C@@H](CCCN=C(N)N)C(=O)N1CCC[C@H]1C(=O)N[C@H](C(=O)N[C@@H](CCCN=C(N)N)C(=O)N1CCC[C@H]1C(=O)N1CCC[C@H]1C(=O)N[C@@H](Cc1ccccc1)C(=O)N[C@@H](Cc1ccc(O)cc1)C(=O)N[C@@H](CCCN=C(N)N)C(=O)O)[C@@H](C)CC` [RWRRPIRRRPIRPPFYR] came in with an MIC in test [3] of 4 µM (≈ 9.52 µg/mL).

`CC(C)C[C@H](NC(=O)[C@H](Cc1c[nH]c2ccccc12)NC(=O)[C@H](CCCN=C(N)N)NC(=O)[C@H](CC(C)C)NC(=O)[C@H](Cc1c[nH]c2ccccc12)NC(=O)[C@H](CC(C)C)NC(=O)[C@H](CC(C)C)NC(=O)[C@H](Cc1c[nH]c2ccccc12)NC(=O)[C@@H](N)CC(C)C)C(N)=O` [LWLLWLRWL]: in test [4], the MIC turned out to be 3.12 µM (≈ 4.06 µg/mL). That is a single-digit micromolar value.

Consider `CC[C@H](C)[C@H](NC(=O)CNC(=O)[C@H](CC(C)C)NC(=O)[C@@H](NC(=O)[C@@H]1CCCN1C(=O)[C@@H](N)CCC(=O)O)[C@@H](C)CC)C(=O)N[C@H](C(=O)N[C@H](C(=O)N[C@@H](CO)C(=O)N[C@@H](CC(C)C)C(=O)N[C@@H](CC(C)C)C(=O)N[C@@H](CCCCN)C(=O)N[C@@H](CO)C(=O)N[C@@H](CC(C)C)C(N)=O)[C@@H](C)O)[C@@H](C)CC` [EPILGIITSLLKSL], for which the MIC is no less than 66.8 µM in [5], 66.8 µM (≈ 99.9 µg/mL) in test [6], 0.334 µM (≈ 0.5 µg/mL) in test [7] and no less than 66.8 µM in test [8].

Turning to `CC(C)C[C@H](NC(=O)[C@H](CC(C)C)NC(=O)[C@@H](NC(=O)[C@@H](N)CCCCN)[C@@H](C)O)C(=O)N[C@@H](CCCCN)C(=O)N[C@@H](CCCCN)C(=O)N[C@H](C(=O)N[C@@H](CC(C)C)C(=O)N[C@@H](CCCCN)C(=O)N[C@@H](C)C(=O)N[C@@H](C)C(=O)N[C@@H](C)C(N)=O)C(C)C` [KTLLKKVLKAAA], the MIC in [9] was greater than 50 µM; in test [10] it was greater than 50 µM; in [11], no less than 50 µM; in test [12], no less than 50 µM.

Take `CC(C)C[C@H](NC(=O)[C@H](Cc1c[nH]c2ccccc12)NC(=O)[C@H](Cc1c[nH]c2ccccc12)NC(=O)[C@H](CC(C)C)NC(=O)[C@H](Cc1c[nH]c2ccccc12)NC(=O)[C@@H](N)Cc1c[nH]c2ccccc12)C(=O)N[C@@H](Cc1c[nH]c2ccccc12)C(=O)N[C@@H](Cc1c[nH]c2ccccc12)C(=O)N[C@@H](CCCN=C(N)N)C(N)=O` [WWLWWLWWR]: in test [4], the minimal inhibitory concentration (MIC) amounted to 3.12 µM (≈ 4.74 µg/mL).

The molecule `CC(C)C[C@H](NC(=O)[C@H](Cc1c[nH]c2ccccc12)NC(=O)[C@H](CCCCN)NC(=O)[C@H](CC(C)C)NC(=O)[C@H](CC(C)C)NC(=O)[C@H](CCCCN)NC(=O)[C@@H](N)CCCCN)C(N)=O` [KKLLKWL] came in with an MIC in test [4] of no less than 100 µM.

With `CC(C)C[C@H](NC(=O)[C@H](Cc1c[nH]c2ccccc12)NC(=O)[C@H](CCCCN)NC(=O)[C@H](CCCCN)NC(=O)[C@@H](N)CC(C)C)C(=O)N[C@@H](CCCCN)C(=O)N[C@@H](CCCCN)C(N)=O` [LKKWLKK], the MIC is greater than 212 µM in test [13]; no less than 212 µM in [14]; no less than 212 µM in test [15]; greater than 212 µM in test [16]; no less than 212 µM in [17]; greater than 212 µM in test [18]. For the same molecule, the MIC was no less than 106 µM in [19] and no less than 212 µM in test [20].

Take `CC(=O)N[C@@H](Cc1c[nH]c2ccccc12)C(=O)N[C@@H](Cc1c[nH]c2ccccc12)C(=O)N[C@@H](CC(C)C)C(=O)N[C@@H](Cc1c[nH]c2ccccc12)C(=O)N[C@@H](Cc1c[nH]c2ccccc12)C(=O)N[C@@H](CC(C)C)C(=O)N[C@@H](CCCN=C(N)N)C(=O)N[C@@H](Cc1c[nH]c2ccccc12)C(=O)N[C@@H](CC(C)C)C(N)=O` [WWLWWLRWL]: the MIC in test [4] stood at 25 µM (≈ 37.1 µg/mL).

The molecule `CC[C@H](C)[C@H](NC(=O)[C@H](CC(C)C)NC(=O)[C@H](Cc1ccc(O)cc1)NC(=O)[C@H](CC(C)C)NC(=O)[C@H](CC(C)C)NC(=O)[C@H](CC(C)C)NC(=O)[C@H](CCCN=C(N)N)NC(=O)[C@H](CC(C)C)NC(=O)[C@H](CCCN=C(N)N)NC(=O)[C@H](C)NC(=O)[C@H](C)NC(=O)[C@H](C)N)C(=O)N[C@H](C(=O)N[C@@H](CCCN=C(N)N)C(=O)N[C@@H](CCCN=C(N)N)C(=O)O)[C@@H](C)O` [AAARLRLLLYLITRR] came in with an MIC in [21] of no less than 71.1 µM.

Consider `CC[C@H](C)[C@H](NC(=O)[C@@H]1CCCN1C(=O)[C@H](CCCN=C(N)N)NC(=O)[C@H](CCCN=C(N)N)NC(=O)[C@H](Cc1c[nH]c2ccccc12)NC(=O)[C@@H](N)CCCN=C(N)N)C(=O)N[C@@H](CCCN=C(N)N)C(=O)N[C@@H](CCCN=C(N)N)C(=O)N[C@@H](CCCN=C(N)N)C(=O)N1CCC[C@H]1C(=O)N[C@H](C(=O)N[C@@H](CCCN=C(N)N)C(=O)N1CCC[C@H]1C(=O)N1CCC[C@H]1C(=O)N[C@@H](Cc1c[nH]c2ccccc12)C(=O)N[C@@H](Cc1ccc(O)cc1)C(=O)N1CCC[C@H]1C(=O)O)[C@@H](C)CC` [RWRRPIRRRPIRPPWYP], for which, in test [3], the MIC was found to be 4 µM (≈ 9.44 µg/mL). That is a single-digit micromolar value.

As for `NCCCC[C@H](NC(=O)[C@H](Cc1cnc[nH]1)NC(=O)CN)C(=O)O` [GHK], the MIC in test [22] was no less than 100 µM; in test [1] it was no less than 100 µM; in test [10] it was greater than 100 µM; in [23], no less than 100 µM.

Consider `C[C@@H](O)[C@H](N)C(=O)N[C@@H](CCCN=C(N)N)C(=O)N[C@H](C(=O)N[C@@H](CCCN=C(N)N)C(N)=O)[C@@H](C)O` [TRTR], for which, in [1], the MIC was no less than 100 µM.

For the molecule `CC[C@H](C)[C@H](NC(=O)[C@H](CCC(=O)O)NC(=O)[C@H](CC(N)=O)NC(=O)[C@H](CC(C)C)NC(=O)[C@H](C)NC(=O)[C@H](C)NC(=O)[C@H](CCCCN)NC(=O)CNC(=O)[C@H](C)NC(=O)[C@H](CC(N)=O)NC(=O)[C@H](CCCCN)NC(=O)[C@H](CC(C)C)NC(=O)[C@@H](NC(=O)[C@H](CCC(=O)O)NC(=O)[C@H](CCCCN)NC(=O)[C@H](Cc1c[nH]c2ccccc12)NC(=O)[C@H](CC(C)C)NC(=O)[C@H](C)N)C(C)C)C(=O)N[C@@H](CC(N)=O)C(=O)N[C@@H](CC(N)=O)C(=O)N[C@@H](CC(C)C)C(=O)N[C@H](C(=O)N[C@@H](CCC(N)=O)C(N)=O)C(C)C` [ALWKEVLKNAGKAALNEINNLVQ], the MIC in [24] is no less than 32 µM; in [16] it was 64 µM (≈ 162 µg/mL); in [25], no less than 32 µM; in test [26], no less than 512 µM; in [27], 16 µM (≈ 40.6 µg/mL); in [28], 16 µM (≈ 40.6 µg/mL).
